{
  "source": "patent US20150126368A1",
  "about": "“METHOD OF PROVIDING PLANT WITH STRESS RESISTANCE” (Nippon Soda Co., Ltd., priority 2012, published 2015)",
  "type_in_all_cases": "in vivo",
  "key": {"[1]": {"system": "Cucumber (breed: Sagamihanjirohushinari)", "experiment": "Evaluation test for relief effects of salt injury on cucumber", "settings": "0.1% aqueous sodium chloride from 2 days, raw weight 11 days after spray", "protocol": "Cucumber (breed: Sagamihanjirohushinari, 2 reprications) hydroponically grown up to the two leaf stage in a greenhouse was prepared.\nA water dispersible granule of 30% ascorbic acid palmitate and pyraclostrobin adjusted to 40% with N,N-dimethylformamide were diluted with tap water to a predetermined concentration, and the diluted solution was sprayed over the whole nursery plants in a sufficient amount. After air dried, they were cultivated with normal irrigation in a greenhouse. Then, the irrigation conditions were changed to 0.1% aqueous sodium chloride solution in 2 cm depth from 2 days after the spraying, and cultivated up to 11 days after the spray treatment. Then the raw weights of an aerial part and a root part were each measured. From this, injury relief percentages were computed by the following formula.\nSalt injury relief percentage=((raw weight of each treatment region)−(raw weight of untreated region))/(raw weight of untreated region)×100"}, "Pyricularia oryzae": {"system": "Pyricularia oryzae", "settings": "11 days after inoculation"}, "Tomato (breed: Reiryo)": {"system": "Tomato (breed: Reiryo)", "experiment": "Evaluation test for relief effects of strong light injury on tomato", "settings": "summer blazing sun, 4 days after spraying", "protocol": "Tomato (breed: Reiryo, 2 reprications) grown up to the two leaf stage in a greenhouse was prepared.\nA water dispersible granule of 30% of ascorbyl palmitate and pyraclostrobin dissolved to 40% N,N-dimethylformamide were diluted with tap water to each of the concentrations described in Table 9, and the diluted solution was sprayed over the whole nursery plants in a sufficient amount. After air dried, they were exposed to strong light under summer blazing sun. A degree of disorder was investigated at the elapsed time of 4 days after the spraying.\nFor disorder, a degree of necrosis due to light effects was evaluated by 11 levels of disorder indices from 0 (no necrosis) to 10 (withering to death). From this, disorder relief percentages were computed by the following formula.\nInjury relief percentage=((disorder index of untreated region)−(disorder index of each treated region))/(disorder index of untreated region)×100"}, "Tomato (breed: Momotaro)": {"system": "Tomato (breed: Momotaro)", "experiment": "Evaluation test for relief effects of high temperature injury on tomato", "settings": "sprayed on stem and leaf, 2 days 30° C., then 6 days 40° C. daylight/30° C. dark, vs solvent only", "protocol": "N,N-dimethylformamide based solutions were prepared according to the formulations shown in Table 3 to give chemical solutions for the tests.\nTomato (breed: Momotaro) grown up to the 2.5 leaf stage in a greenhouse was prepared.\nThe above chemical solution was sprayed to the stem and leaf parts of the above tomato nursery plants in a sufficient amount, and then air dried. They were allowed to grow at 30° C. for 2 days under conditions of 16 hours under a daylight condition and 8 hours under a dark condition. Then, they were allowed to grow for 6 days under conditions of 16 hours under a daylight condition at 40° C. and 8 hours under a dark condition at 30° C.\nDisorders were evaluated by 11 levels of disorder indices from 0 (no disorders) to 10 (withering to death).\nHigh temperature injury relief percentages as compared with a region treated with solvent DMF only (Chemical solution 3) were computed by the following formula.\nHigh temperature injury relief percentage=((disorder index of region treated with solvent only)−(disorder index of each treatment region))/(disorder index of region treated with solvent only)×100"}, "[2]": {"system": "Cucumber (breed: Sagamihanjirohushinari)", "experiment": "Evaluation test for relief effects of submergence disorder on cucumber", "settings": "flood from 2 days, raw weight 11 days after spray", "protocol": "Cucumber (breed: Sagamihanjirohushinari, 2 reprications) grown up to the two leaf stage in a greenhouse was prepared.\nA water dispersible granule of 30% ascorbyl palmitate and pyraclostrobin adjusted to 40% with N,N-dimethylformamide were diluted with tap water to a predetermined concentration, and the diluted solution was sprayed in a sufficient amount. They were subjected to flood conditions up to immediately below the cotyledon from 2 days after the spray treatment, and the raw weights of an above ground part and a root part of cucumber were each measured at the elapsed time of 11 days after the spray treatment. From this, injury relief percentages were computed by the following formula.\nFlood injury relief percentage=((raw weight of each treatment region)−(raw weight of untreated region))/(raw weight of untreated region)×100"}, "[3]": {"system": "Eustoma grandiflorum (breed: King of Snow)", "experiment": "Evaluation test for relief effects of high temperature injury on Eustoma grandiflorum", "settings": "ascorbyl palmitate 600 ppm, sprayed 10 times; 2 weeks at 35° C. daylight/15° C. dark", "protocol": "Eustoma grandiflorum (breed: King of Snow) grown at a temperature of 22° C. and 16 hours under dark condition in a cell tray in the room was prepared. When an appropriately half were sprouted after seeding, a water dispersible granule of 30% ascorbyl palmitate was diluted with distilled water to a predetermined concentration, and the diluted solution was sprayed on the whole nursery plants in a sufficient amount. Subsequently, spraying by the same method was performed two times a week for the total of 10 times including the first application. Meanwhile, they were transferred to under conditions of 16 hours under a daylight condition at 35° C. and 8 hours under a dark condition at 15° C. at the expansion stage of a pair of true leaves 3 weeks after seeding, and allowed to grow for 2 weeks. Further, they were transferred to in a glass greenhouse and allowed to grow. Then naturalization was performed upon the expansion stage of two pairs of true leaves 8 week after seeding, and continuously allowed to grow in the greenhouse. Subsequently, the number of those bloomed out of the bolting plants was investigated."}, "[4]": {"system": "Wheat (breed, Norin No. 61)", "experiment": "Test for green color maintenance effects (relief of high temperature injury) on wheat", "settings": "appl. amount 1.5 g/m^2 at plant foot, 4 times at intervals of seven days, field", "from_the_text": "Wheat (breed, Norin No. 61, 15 plants/m^2/region, 2 reprications) grown in the field was used. A water dispersible granule of 30% ascorbyl palmitate in an amount described in Table 11 was applied to the plant foot 4 times at intervals of seven days from the next day of the ear emergence day in August. The leaf color index of top 4 to 5 leaves of each plant in a treatment region was investigated on September 6 to evaluate maintenance effects of leaf color as compared with that in the untreated region.\nLeaf color was evaluated by […] of leaf color indices of 1 (discolored at ¼ or less of the whole), 2 (discolored at ½ or less of the whole) and 3 (discolored at ¾ or more of the whole). From this, the mean leaf color index, and green color maintenance effects were computed by the following formula.\nGreen color maintenance effect=(leaf color index of untreated region)−(leaf color index of each treatment region))/(leaf color index of untreated region)×100"}, "[5]": {"settings": "Pyraclostrobin 5 ppm spray on rice (Koshihikari) one day before inoculation"}, "[6]": {"settings": "ascorbyl palmitate 1000 ppm spray"}, "[7]": {"settings": "ascorbyl palmitate 50 ppm spray on rice (Koshihikari) one day before inoculation"}},
  "note": "Where two headings read alike, the source gives them in different places.",
  "data": [
    {"smiles": "COC(=O)N(OC)c1ccccc1COc1ccn(-c2ccc(Cl)cc2)n1", "note": "[Pyraclostrobin, reference compound]", "values": [
      {"measurement": "relief percents of salt injury in aerial part(%)", "setting": "[1]; Pyraclostrobin 50 ppm spray", "value": 45.6, "unit": "%"},
      {"measurement": "relief percents of salt injury in root(%)", "setting": "[1]; Pyraclostrobin 50 ppm spray", "value": 20.0, "unit": "%"},
      {"measurement": "Number of lesion spots", "setting": "Pyricularia oryzae; [5]", "value": 10},
      {"measurement": "Preventive value(%)", "setting": "Pyricularia oryzae; [5]", "value": 70, "unit": "%"},
      {"measurement": "relief percents of strong light injury (%)", "setting": "Tomato (breed: Reiryo); Pyraclostrobin 50 ppm spray", "value": 40, "unit": "%"},
      {"measurement": "relief percents of high-temperature injury (%)", "setting": "Tomato (breed: Momotaro); Pyraclostrobin 40 ppm in DMF", "value": 35, "unit": "%"},
      {"measurement": "relief percents of flood injury in aerial part(%)", "setting": "[2]; Pyraclostrobin 50 ppm spray", "value": 61.7, "unit": "%"},
      {"measurement": "relief percents of flood injury in root(%)", "setting": "[2]; Pyraclostrobin 50 ppm spray", "value": 39.0, "unit": "%"}
    ]},
    {"smiles": "CCCCCCCCCCCCCCCC(=O)OC[C@H](O)[C@H]1OC(=O)C(O)=C1O", "note": "[ascorbyl palmitate]", "values": [
      {"measurement": "relief percents of salt injury in aerial part(%)", "setting": "[1]; [6]", "value": 8.8, "unit": "%"},
      {"measurement": "relief percents of salt injury in root(%)", "setting": "[1]; [6]", "value": 16.0, "unit": "%"},
      {"measurement": "Number of lesion spots", "setting": "Pyricularia oryzae; [7]", "value": 30},
      {"measurement": "Preventive value(%)", "setting": "Pyricularia oryzae; [7]", "value": 9, "unit": "%"},
      {"measurement": "Number of bloomed plants", "setting": "[3]", "value": 12},
      {"measurement": "Number of bolting plants", "setting": "[3]", "value": 16},
      {"measurement": "Percents of bloomed plants(%)", "setting": "[3]", "value": 75.0, "unit": "%"},
      {"measurement": "relief percents of strong light injury (%)", "setting": "Tomato (breed: Reiryo); [6]", "value": 50, "unit": "%"},
      {"measurement": "mean leaf color index", "setting": "[4]; index 1 to 3", "value": 1.5},
      {"measurement": "Green color maintenance effect(%)", "setting": "[4]; vs untreated region", "value": 25.0, "unit": "%"},
      {"measurement": "relief percents of high-temperature injury (%)", "setting": "Tomato (breed: Momotaro); ascorbyl palmitate 800 ppm in DMF", "value": 57, "unit": "%"},
      {"measurement": "relief percents of flood injury in aerial part(%)", "setting": "[2]; [6]", "value": 31.9, "unit": "%"},
      {"measurement": "relief percents of flood injury in root(%)", "setting": "[2]; [6]", "value": 41.5, "unit": "%"}
    ]}
  ]
}
